For data set [1], the system named is intraocular pressure. As to the kind of experiment: IOP lowering in dexamethasone induced ocular hypertensive (OHT) mouse eyes. The format is in vivo. The note with it: periocular once every week for 4 weeks, baseline 11.85 ± 2.27. As to the method:
Mice (C57BL/6J, 12 weeks, n = 3–5) were anesthetized and the periocular injection of dexamethasone acetate (DEX-Ac, 10 mg/mL) or vehicle (20 μL) was administered immediately under the isoflurane over the course of 10 to 15 s. The procedure was performed in both eyes of each mice after it was numbed with proparacaine as reported previously. Mice were treated with DEX-Ac or vehicle once per week for four weeks to achieve the desired IOP elevation. Baseline IOP was measured using tonometer. […] The entire dosing schedule was repeated 3 times in each mouse eye. IOP plots were generated from IOP values obtained from the treated eyes.

Data set [2] deals with intraocular pressure. Also noted: method as in private communication, unpublished result. The note with it: monkey eyes; ref private communication, unpublished result; cited from earlier work.
The test system of data set [3] is NTM-5 cells. Description: Superoxide scavenging ratio in NTM-5 cell supernatant (pyrogallol assay), with or without TBHP. The class given is cell-based, human. To be noted: for AUC0-3h of superoxide scavenging ratio: NTM-5 cell supernatant, 18 h treatment, 0.1-1000 µM. As to the method:
The ROS scavenging ratio was determined using a chemical assay where WST-1 was used as superoxide scavenger produced by pyrogallol following a reported protocol. Briefly, the superoxide anion radical scavenging activity was determined spectrophotometrically by measuring the formation of WST-1 formazan at 450 nm. WST-1 (40 µL, 50 µM) was added to the compounds (or corresponding solution) in a final volume of 160 µL in 50 mM ammonium hydrogen carbonate buffer, 0.5 mM EDTA, pH 9.3. Reaction was launched by adding 40 µL 1 mM pyrogallol. The operation was based on the 96-well microplate, and measurement was performed at different time points under 37 °C by Cytation5 Microplate Reader. Baicalein (1 mM) was used as positive control. Compounds SA-2, SA-9, and SA-10 were used in concentrations ranging from 1 µM, 10 µM, 100 µM, and 1000 µM. The superoxide anion radical scavenging ratio % was calculated according to the following formula:Scavenging ratio (%) = A0 − (A1 − A2)/A0 × 100% […]
(§1) The experiments were repeated twice with four technical replicates.
Figure 2 Superoxide scavenging ability of SA compounds in buffer and cells. (a) The % of superoxide scavenging response from 1 mM concentration of SA-2, SA-9, and SA-10 in pyrogallol (Pyr, 1 mM) induced superoxide induction assay at different time points in buffer. The AUC0–2.5 h for SA-2, SA-9, and SA-10 were 1592 ± 37.87, 1355 ± 42.62, and 2350 ± 69.26, respectively. (b) Comparison of the % ROS scavenging activity of SA-2, SA-9, and SA-10 with control after 15 min of treatment of pyrogallol. (c) The superoxide scavenging ratio (%) after 18 h treatment of 10 µM concentration of SA-2, SA-9, and SA-10 to NTM-5 cell supernatant using pyrogallol induced superoxide induction assay at different time points. (d) The superoxide scavenging ratio (%) of 10 µM concentration of SA-2, SA-9, and SA-10 in NTM-5 cell supernatant. The cells were previously treated with 5.5 mM of TBHP for 30 min followed by SA compounds and incubated for 18 h. Control is untreated cells. Three technical replicates were used for each experiment and all experiments were repeated 2 times. * p < 0.05, ** p < 0.005, *** p < 0.001, **** p < 0.0001, One-way ANOVA for (b), and two-way ANOVA for (c,d).
Figure S1: Superoxide scavenging ability of SA compounds in buffer and cells. a) The % of superoxide scavenging response from different concentrations of SA-2, SA-9 and SA-10 in pyrogallol (1 µM, 10 µM, 100 µM and 1,000 µM) induced superoxide induction assay at 15 minutes time point in buffer solution. The […]
superoxide scavenging ratio (%) after 18h treatment of different concentrations (0.1 µM, 1 µM, 10 µM, 100 µM and 1,000 µM) of SA-2, SA-9 and SA-10 to NTM-5 cell supernatant with or without TBHP (5.5 mM) using pyrogallol induced superoxide induction assay at 3h time point. Control is untreated cells. The cells were previously treated with 5.5 mM of TBHP for 30 minutes followed by SA compounds and TBHP and incubated for 18h. Control is untreated cells. e) The AUC0-3h for SA-2, SA-9 and SA-10 were 18902 ± 2714, […]
for each experiment and all experiments were repeated 2 times. N = 3.
(1 picture or pasted object on this page, not shown here)

Details of data set [4]: method as in PMID 26832784. To be noted: PBS 7.4; cited from earlier work.
Data set [5] deals with NTM-5 cells. Description: In vitro cell viability (MTT) assay. The note with it: for cytotoxicity: NTM-5 cells, 24 h, up to 1000 µM.
Method: NTM-5 cells (6000 cells/well) were seeded in 96-well plates to confluency. […] The cell viability and proliferation were measured using MTT assays (CellTiter 96® AQueous One Solution Cell Proliferation Assay, Promega Madison, WI, USA) following manufacturer instruction. The experiments were repeated twice with four technical replicates.
Data set [6] deals with NTM-5 cells. As to the kind of experiment: In vitro peroxynitrite measurement assay. To be noted: 0.1 µM and 1 mM, with or without TBHP 350 µM. The format is cell-based, human. As to the method: Human transformed trabecular meshwork (NTM-5) cells (20,000 cells/well/90 µL) were seeded in 96-well plates (Griener bio-one black plate) and stained with 10 µL of 10X Peroxynitrite Sensor Green solution for 1 h. […] SIN-1 was used as a positive control. Detection of peroxynitrite was done using Peroxynitrite Assay Kit (abcam-ab233468-cell based). Fluorescence signals were measured using a microplate reader (Cytation5) at Ex/Em = 485/530 nm at time intervals (15 min, 30 min, 1 h, 2 h, and 3 h). The experiments were done in duplicates.

The test system of data set [7] is NTM-5 cells. As to the kind of experiment: In vitro cytoprotection assay against TBHP (MTT). The class given is cell-based. To be noted: Homo sapiens, TBHP 350 µM, read-out: EC50 of increase in cell viability (cytoprotection). The procedure:
After 24 h of treatment, cell proliferation was measured using MTT assay. All the experiments are done in duplicate with four experimental replicates.

In data set [8] the test system is NTM-5 cells. As to the kind of experiment: Total nitrite release by Griess assay in NTM-5 cell supernatant. The class given is cell-based, human. The note with it: for NO released in NTM-5 cell supernatants: 28 h at 37 °C; for start of NO release: buffer solution and TM cells. The procedure:
(§2) The total nitrite released from the compounds in buffer and in cell supernatant were measured by Griess assay as reported by us previously. In brief, compounds (SA-2, SA-9, and SA-10) in buffer at different concentrations (1 mM, 500 µM, 250 µM 125 µM, 62.5 µM, 31.25 µM, and 15.625 µM) or supernatant collected from Human transformed trabecular meshwork (NTM-5) cells were added to a 96-well plate. 1% Sulphanilamide in 5% phosphoric acid and 0.1% N-1-napthylethylenediamine dihydrochloride (NED) were added to experimental samples sequentially at room temperature and away from light. SIN-1 was used as reference standard. UV Absorbances (Cytation 5) were measured at specific timepoints (0, 5 min, 10 min, 15 min, 30 min, 24 h, and 28 h) at 520 nm.
as §1

A short description of data set [9]: Superoxide anion radical scavenging assay (pyrogallol/WST-1) in buffer. The format is biochemical. To be noted: for AUC0–2.5 h of % superoxide scavenging response: 1 mM compound, pyrogallol 1 mM; for earliest time of superoxide (O2−) radical scavenging: buffer solution and TM cells; for superoxide radicals scavenged: dose response 1-1000 µM; for AUC0-15 of % superoxide scavenging response: different concentrations 1-1000 µM, 15 minutes time point. The procedure:
The ROS scavenging ratio was determined using a chemical assay where WST-1 was used as superoxide scavenger produced by pyrogallol following a reported protocol. Briefly, the superoxide anion radical scavenging activity was determined spectrophotometrically by measuring the formation of WST-1 formazan at 450 nm. WST-1 (40 µL, 50 µM) was added to the compounds (or corresponding solution) in a final volume of 160 µL in 50 mM ammonium hydrogen carbonate buffer, 0.5 mM EDTA, pH 9.3. Reaction was launched by adding 40 µL 1 mM pyrogallol. The operation was based on the 96-well microplate, and measurement was performed at different time points under 37 °C by Cytation5 Microplate Reader. Baicalein (1 mM) was used as positive control. Compounds SA-2, SA-9, and SA-10 were used in concentrations ranging from 1 µM, 10 µM, 100 µM, and 1000 µM. The superoxide anion radical scavenging ratio % was calculated according to the following formula:Scavenging ratio (%) = A0 − (A1 − A2)/A0 × 100%

The nature of data set [10]: Hypochlorous acid (HOCl) radical scavenging assay (TNB) in buffer. The class given is biochemical. As to the method:
This assay used the redox reaction between 5-thio-2-nitrobenzoic acid (TNB) and HOCl to form dithio-TNB. Using the method described previously, we assessed the % TNB remaining with or without treatment with SA compounds. Compounds SA-2, SA-9, and SA-10 were used in concentrations ranging from 0.1 µM, 1 µM, 10 µM, 100 µM, and 1000 µM. Lipoic acid (1 mM) was used as positive control.

The nature of data set [11]: Total nitrite/NO release by Griess assay in buffer (aqueous stability). To be noted: even after 3 days. The class given is physicochemical. The procedure: as §2, with “UV Absorbances (Cytation 5) were measured at specific timepoints (0, 5 min, 10 min, 15 min, 30 min, 24 h, and 28 h) at 520 nm.” left out
Data set [12] concerns intraocular pressure. The arrangement: method as in PMID 8675417. To be noted: rabbit eyes, 20 mM, intraocular injection; cited from earlier work.

The structures appear in SMILES notation. Some results are limits rather than exact numbers.

Consider `CC(=O)OCC(=O)[C@@]1(O)[C@H](C)C[C@H]2[C@@H]3CCC4=CC(=O)C=C[C@]4(C)[C@@]3(F)[C@@H](O)C[C@@]21C` [Dexamethasone, dexamethasone acetate], for which the “IOP after dexamethasone injection” value in the data set on intraocular pressure [1] is given as 21.9 ± 5.92 mm/Hg.

Consider `CCOC(=O)[N-]c1cn(N2CCOCC2)n[o+]1` [Molsidomine, molsidomine], for which, in the data set on intraocular pressure [2], the “NO release profile or IOP lowering activity” value was “no NO release profile or IOP lowering activity”.

`CC1(C)CC([n+]2cc([NH-])on2)CC(C)(C)N1O` [SA-2, reference compound]: the “AUC0-3h of superoxide scavenging ratio” value with NTM-5 cells [3] (with TBHP 5.5 mM) is 18285 ± 3960. The “AUC0-3h of superoxide scavenging ratio” value in the data set with NTM-5 cells [3] (without TBHP) came out at 18902 ± 2714. Also, in [4], the “half-life in PBS7.4” value is listed as under 1 h. Also, in the data set with NTM-5 cells [5], the cytotoxicity entry is “no cytotoxicity”. Further, the “ONOO− radical formation” value with NTM-5 cells [6] was “produced less”. Besides, the EC50 in the data set with NTM-5 cells [7] amounted to 5.2 µM. For the same compound, in the data set on NTM-5 cells [8], the “NO released in NTM-5 cell supernatants” value is “dose dependently” and the “start of NO release” value is reported as over 24 h. Moreover, in data set [9] (buffer), the “AUC0–2.5 h of % superoxide scavenging response” value was 1592 ± 37.87, the superoxide radicals scavenged is 16–40% and the “AUC0-15 of % superoxide scavenging response” value amounted to 11604± 815.9. Also, the “earliest time of superoxide (O2−) radical scavenging” value in [9] came to 7 min.

As for `Cl.[NH-]c1c[n+](C2CCS(=O)(=O)CC2)no1` [SA-10, (3-(1,1-dioxidotetrahydro-2H-thiopyran-4-yl)-1,2,3-oxadiazol-3-ium-5-yl) amide hydrochloride], the “superoxide scavenging ability (ratio)” value with NTM-5 cells [3] (10 µM for 18 h, NTM-5 cells insulted with TBHP, TBHP alone 2.5%) is 20–25%. Moreover, the “fold prevention of the decrease in superoxide scavenging ability vs TBHP alone” value in the data set on NTM-5 cells [3] (10 µM for 18 h, TBHP-treated NTM-5 cells) was ~ 10 fold. For the same compound, the “AUC0-3h of superoxide scavenging ratio” value with NTM-5 cells [3] (with TBHP 5.5 mM) is listed as 17893 ± 2714. In addition, the “AUC0-3h of superoxide scavenging ratio” value in the data set on NTM-5 cells [3] (without TBHP) is 21444 ± 1877. Further, the cytotoxicity entry in the data set with NTM-5 cells [5] is listed as “no cytotoxicity”. In addition, in the data set with NTM-5 cells [6], the “ONOO− radical formation” value is listed as “not as efficacious as SA-9”. For the same compound, the “fold more potent than lipoic acid in HOCl scavenging” value in data set [10] (0.1 µM vs. 1 mM lipoic acid, 30 min) was 10,000 fold. Further, in [10] (0.1 µM–1000 µM in buffer), the “duration of HOCl scavenging effect” value is listed as over 1 h. Moreover, the “NO release in buffer” value in [11] was “did not observe any NO release”. The EC50 in the data set on NTM-5 cells [7] is 0.0103 µM. Moreover, in the data set with NTM-5 cells [8], the “NO released in NTM-5 cell supernatants” value was “dose dependently” and the “start of NO release” value was over 24 h. In data set [9] (buffer), the “AUC0–2.5 h of % superoxide scavenging response” value is given as 2350 ± 69.26, the superoxide radicals scavenged was 16–40% and the “AUC0-15 of % superoxide scavenging response” value is on record as 20433± 3128. The “fold more potent than SA-2 in superoxide scavenging” value in data set [9] (1 mM, buffer, 15 min after pyrogallol) was determined as 2.5 fold. The “earliest time of superoxide (O2−) radical scavenging” value in [9] stood at 7 min.

In the case of `[NH-]c1c[n+](N2CCOCC2)no1` [SIN-1, linsidomine, reference compound], in the data set with intraocular pressure [12], the “duration of IOP reduction” value is on record as “up to 3 h”. In addition, the “ONOO− radical formation” value in the data set with NTM-5 cells [6] is given as “significantly higher level”.

For the compound `CC(C)(C)OO` [TBHP, t-butyl hydrogen peroxide, reference compound], in the data set with NTM-5 cells [5] (Homo sapiens, read-out: half-maximal effective concentration (EC50) dose of TBHP), the EC50 worked out at 350 µM.
